# Reference: US20240216369A1, “THE USE OF A SPLICING MODULATOR FOR A TREATMENT SLOWING PROGRESSION OF HUNTINGTON'S DISEASE” (Novartis AG, priority 2019, published 2024)
# “Also recorded” adds a separate entry of the source.
# Tests used:
# Format in all cases: in vivo
# HTT transcript = assay: Single oral dose in BacHD mice: HTT transcripts in brain and blood (qPCR)
# Protocol: Twenty-eight BacHD mice (FVB/N-Tg(HTT*97Q)|Xwy/J transgenic mice—Jackson Laboratories) were used for the experiment. Animal protocols were approved by the Children's Hospital of Philadelphia Institutional Animal Care and use Committee. Mice were housed in a temperature-controlled environment on a 12-h light/dark cycle. Food and water were provided ad libitum.
# A single dose of branaplam or vehicle solution was administered by oral gavage. Mice were divided in seven groups (n=4 mice/group) and treated with branaplam (10 mg/kg—2 groups) and 50 mg/kg—3 groups), or vehicle (2 groups) as control. Mice were firmly restrained by grasping the loose skin to immobilize the head, maintained in a vertical position and a 22- to 26-gauge gavage needle was placed in the side of the mouth. The needle was guided following the roof of the mouth into the esophagus and allowed to gently enter in the stomach. The amount of branaplam or vehicle administrated to each mouse was based on the weight recorded before treatment.
# At 8 h, 24 h (vehicle and branaplam 10 mg/kg & 50 mg/kg), and 48 h (branaplam 50 mg/kg) after oral gavage, blood and tissue samples were obtained for PK and PD analysis. Mice were anesthetized with isoflurane and blood was obtained via submandibular vein bleeds and collected for RNA extraction (PD analysis) using RNAprotect Animal Blood Tubes, and plasma (PK analysis) using K2EDTA coated tubes. Cells were removed from plasma by centrifugation for 10 min at 2000×g at 4° C., and plasma samples were stored at −80° C. Following blood collection, mice were anesthetized with a lethal dose of ketamine/xylazine ([…] of a 10 mg:1 mg), and perfused with 18 ml of 0.9% cold saline mixed with 2 ml of RNAlater (Ambion) solution for tissue collection. Liver, skeletal muscle, cerebrum, and cerebellum samples were flash frozen in liquid nitrogen and stored at −80° C.
# In experiments, as herein described, the branaplam dose is provided as a solution of branaplam monohydrochloride salt (10 mg/mL suspension) in methyl cellulose, medium viscosity 400 cP for a 1% solution), Tween 80 (1% v/v), purified water suspension formulation.
# (§1) Total RNA from cerebrum and cerebellum was extracted using RNeasy Plus kit (Qiagen) after homogenized in Precellys at 6000 rpm for 40 sec. RNA from blood was extracted using PAXgene blood RNA kit (Qiagen) according to manufacturer protocol. The RNA was quantified by Nanodrop 2000 (Thermo Scientific). cDNAs were synthesized from 140-400 ng RNA using Maxima First strand cDNA synthesis kit using a mix of oligo dT and random hexamers (Thermo Scientific) in 20 uL reaction at 25° C. for 10 min, 50° C. for 15 min then 85° C. for 5 min. Quantitative PCR was performed using Taqman Fast Advanced master mix (Thermo Scientific) in 20 uL with 4 uL of cDNA reaction and primers specific for each genes. The PCR steps were as follows: 95° C. for 20 sec then 40 cycles of 95° C. for 1 sec, 55° C. for 20 sec. […] Relative quantification of gene expression was performed using 2^−ΔΔCT method. Fold changes in the mRNA expression level was calculated following normalization to mouse glucuronidase beta (Gusb) as an endogenous reference.
# [1] = system: endogenous mouse HTT transcript or protein; assay: BacHD mice: effect on endogenous mouse HTT
# Protocol: as §1
# Snap-frozen mouse tissue samples were homogenized in RIPA buffer with protease and phosphatase inhibitor (Thermo Scientific) by Precellys at 6000 rpm for 40 sec. […] Total protein concentration was quantified using the BCA protein Assay (Thermo Scientific). […] Protein bands were quantified by Image J.
# mutant HTT protein = assay: Mouse population PK/PD turnover model based on BacHD mouse; details: for Imax: set to 1
# Source text: For the development of the PK/PD relationship, the concentration of mutant HTT protein in the brain of BacHD mice and its changes after branaplam administration were used as PD biomarker (Example 1a). To increase the data base, all concentrations of the mutant HTT protein were pooled. The correlation between branaplam concentrations in plasma and the mutant HTT protein concentrations in the brain were investigated by means of a turnover model (described below) considering the inhibition of the production of mutant HTT protein in the brain. Since mutant HTT protein was determined in brain cortex and brain striatum, the PK/PD correlations were executed for both brain parts separately. […] For the execution of the population PK/PD model, the PK parameters (presented in Table 6) from the previously described population PK model were fixed and the PD parameters were calculated. The Monolix software (Version 2018R1, Lixoft) and its turnover model described in the library (pkpd/oral1_2cpt_SigmoidindirectModelinhibitionKin_TlagkaCIV1QV2R0koutimaxIC50gamma) was used to determine the PD parameters in the mouse. The PD part of the model can be described by the following equation:
# mutant HTT protein change over time=kin*(1−I max*max(Cc,0)^gamma/(max(Cc,0)^gamma+IC50^gamma))−kout*R • kin: synthesis rate of mutant HTT protein • kout: degradation rate of mutant HTT protein • Imax: maximum inhibition effect • IC50: half-maximum inhibitory concentration • gamma: sigmoidicity of the drug effect • max(Cc,0): branaplam plasma concentration • R: mutant HTT protein level at a given time with baseline R0 of 1 since only relative changes to the baseline were determined in the BacHD mouse model, Example 1a
# It has to be noted, that the maximum inhibitory effect was set to 1 and the mutant HTT protein baseline, R0, was set to 1 since only relative changes to the baseline were determined in the BacHD mouse (Example 1a).
# [2] = single oral dose 10 or 50 mg/kg, listed as branaplam
smiles,measurement,setting,value
"CC1(C)CC(Oc2ccc(-c3ccc(-c4cn[nH]c4)cc3O)nn2)CC(C)(C)N1 [Compound 18, 5-(1H-pyrazol-4-yl)-2-(6-((2,2,6,6-tetramethylpiperidin-4-yl)oxy)pyridazin-3-yl)phenol]",novel-exon-containing HTT transcript levels in brain,"HTT transcript; single oral dose 50 mg/kg, 48 h after dosing",trend towards return to vehicle levels
same,novel-exon-containing HTT transcript levels in brain,"HTT transcript; single oral dose 10 or 50 mg/kg, 8 and 24 h after dosing, listed as branaplam",elevates; also recorded: dose dependent increase
same,total HTT transcript levels in brain,"HTT transcript; single oral dose 10 or 50 mg/kg, 8 h and 24 h, listed as branaplam","lowers; also recorded: lowering trend at 8 h; also recorded: greater degree of lowering at the 50 mg/kg level, 24 hours post-dosing"
same,novel-exon-containing HTT transcript levels in blood,HTT transcript; [2],elevates; also recorded: robust modulation
same,total HTT transcript levels in blood,HTT transcript; [2],lowers; also recorded: lowering
same,effect on endogenous mouse HTT transcript or protein,[1],no lowering effect
same,time of maximum decrease of mutant HTT protein in the brain,mutant HTT protein; BacHD mouse,about 72 h post dose
same,"IC50 (plasma concentration, inhibition of mutant HTT protein production)","mutant HTT protein; popPD parameters (cortex), BacHD mouse",0.174 µg/mL
same,Imax,mutant HTT protein; popPD parameters (cortex),1
same,"IC50 (plasma concentration, inhibition of mutant HTT protein production)","mutant HTT protein; popPD parameters (striatum), BacHD mouse",0.0682 µg/mL
same,Imax,mutant HTT protein; popPD parameters (striatum),1
